According to ChEMBL document CHEMBL6083262, “Stereorandomized Oncocins with Preserved Ribosome Binding and Antibacterial Activity” (J Med Chem, 2024):
Converted amounts (≈) assume the structure as drawn. The source made the active and inactive calls. The calls are words filed in the database; no cut-off is given here. Non-standard residues stand in square brackets, D forms with d. Residues, ends and D or L forms follow the SMILES beside them. ξ: configuration not given here. ξY = NC(Cc1ccc(O)cc1)C(=O)O; ξR = N=C(N)NCCCC(N)C(=O)O; ξN = NC(=O)CC(N)C(=O)O; ξI = CCC(C)C(N)C(=O)O; ξP = O=C(O)C1CCCN1

How the values were obtained:
Escherichia coli [1] = assay: Bacteriostatic activity against Escherichia coli at 8 times MIC in full muller hinton medium by Time-kill assay; assay type: functional, organism-based
Klebsiella pneumoniae [2] = assay: Bacteriostatic activity against Klebsiella pneumoniae at 8 times MIC in full muller hinton medium by Time-kill assay; assay type: functional, organism-based
Escherichia coli [3] = assay: Bacteriostatic activity against Escherichia coli assessed as detachment of inner membrane from outer membrane by measuring a large void at 8 times MIC in full muller hinton medium by transmission electron microscopic analysis; assay type: functional, organism-based
Klebsiella pneumoniae [4] = assay: Bacteriostatic activity against Klebsiella pneumoniae assessed as detachment of inner membrane from outer membrane by measuring a large void at 8 times MIC in full muller hinton medium by transmission electron microscopic analysis; assay type: functional, organism-based
Escherichia coli [5] = assay: Bacteriostatic activity against Escherichia coli assessed as small intracellular vesicles at 8 times MIC in full muller hinton medium by transmission electron microscopic analysis; assay type: functional, organism-based
Klebsiella pneumoniae [6] = assay: Bacteriostatic activity against Klebsiella pneumoniae assessed as small intracellular vesicles at 8 times MIC in full muller hinton medium by transmission electron microscopic analysis; assay type: functional, organism-based
Escherichia coli [7] = assay: Bacteriostatic activity against Escherichia coli assessed as membrane perturbation at 8 times MIC in full muller hinton medium by transmission electron microscopic analysis; assay type: functional, organism-based
Klebsiella pneumoniae [8] = assay: Bacteriostatic activity against Klebsiella pneumoniae assessed as membrane perturbation at 8 times MIC in full muller hinton medium by transmission electron microscopic analysis; assay type: functional, organism-based
Klebsiella pneumoniae [9] = assay: Antimicrobial activity against Klebsiella pneumoniae NCTC 418 incubated for 16 to 20 hrs in full muller hinton medium by broth microdilution method; assay type: functional; conditions: time 16-20 hrs
Pseudomonas aeruginosa [10] = assay: Antimicrobial activity against Pseudomonas aeruginosa PAO1 incubated for 16 to 20 hrs in full muller hinton medium by broth microdilution method; assay type: functional; conditions: time 16-20 hrs
Acinetobacter baumannii = assay: Antimicrobial activity against Acinetobacter baumannii ATCC 19606 incubated for 16 to 20 hrs in full muller hinton medium by broth microdilution method; assay type: functional; conditions: time 16-20 hrs
Staphylococcus aureus [11] = assay: Antimicrobial activity against methicillin-resistant Staphylococcus aureus COL incubated for 16 to 20 hrs in full muller hinton medium by broth microdilution method; assay type: functional; conditions: time 16-20 hrs
Klebsiella pneumoniae [12] = assay: Antimicrobial activity against Klebsiella pneumoniae NCTC 418 incubated for 16 to 20 hrs in 12.5 % muller hinton medium by broth microdilution method; assay type: functional; conditions: time 16-20 hrs
Pseudomonas aeruginosa [13] = assay: Antimicrobial activity against Pseudomonas aeruginosa PAO1 incubated for 16 to 20 hrs in 12.5 % muller hinton medium by broth microdilution method; assay type: functional; conditions: time 16-20 hrs
[14] = Hemolytic activity in human RBC incubated for 4 hrs; assay type: toxicity, cell-based; conditions: erythrocyte
Pseudomonas aeruginosa [15] = assay: Antibacterial activity against multidrug-resistant Pseudomonas aeruginosa PA14 incubated for 16 to 20 hrs in full muller hinton medium by broth microdilution method; assay type: functional; conditions: time 16-20 hrs
Pseudomonas aeruginosa [16] = assay: Antibacterial activity against multidrug-resistant Pseudomonas aeruginosa PA14 4.13 harboring phoQ mutant incubated for 16 to 20 hrs in full muller hinton medium by broth microdilution method; assay type: functional; conditions: time 16-20 hrs
Pseudomonas aeruginosa [17] = assay: Antibacterial activity against multidrug-resistant Pseudomonas aeruginosa PA14 4.18 harboring pmrB mutant incubated for 16 to 20 hrs in full muller hinton medium by broth microdilution method; assay type: functional; conditions: time 16-20 hrs
Pseudomonas aeruginosa [18] = assay: Antibacterial activity against multidrug-resistant Pseudomonas aeruginosa PA14 2P4 harboring pmrB mutant incubated for 16 to 20 hrs in full muller hinton medium by broth microdilution method; assay type: functional; conditions: time 16-20 hrs
Pseudomonas aeruginosa [19] = assay: Antibacterial activity against multidrug-resistant Pseudomonas aeruginosa clinical isolate ZEM9A incubated for 16 to 20 hrs in full muller hinton medium by broth microdilution method; assay type: functional; conditions: time 16-20 hrs
Escherichia coli [20] = assay: Antimicrobial activity against Escherichia coli W3110 incubated for 16 to 20 hrs in full muller hinton medium by broth microdilution method; assay type: functional; conditions: time 16-20 hrs
Escherichia coli [21] = assay: Antimicrobial activity against Escherichia coli W3110 incubated for 16 to 20 hrs in 12.5 % muller hinton medium by broth microdilution method; assay type: functional; conditions: time 16-20 hrs
Staphylococcus aureus [22] = assay: Antimicrobial activity against methicillin-resistant Staphylococcus aureus COL incubated for 16 to 20 hrs in 12.5 % muller hinton medium by broth microdilution method; assay type: functional; conditions: time 16-20 hrs

Row | Compound | Activity (Escherichia coli [1]) | Activity (Klebsiella pneumoniae [2]) | Activity (Escherichia coli [3]) | Activity (Klebsiella pneumoniae [4]) | Activity (Escherichia coli [5]) | Activity (Klebsiella pneumoniae [6]) | Activity (Escherichia coli [7]) | Activity (Klebsiella pneumoniae [8]) | MIC (Klebsiella pneumoniae [9]) | MIC (Pseudomonas aeruginosa [10]) | MIC (Acinetobacter baumannii) | MIC (Staphylococcus aureus [11]) | MHC [14] | also measured
1 | CC[C@H]1OC(=O)[C@H](C)[C@@H](O[C@H]2C[C@@](C)(OC)[C@@H](O)[C@H](C)O2)[C@H](C)[C@@H](O[C@@H]2O[C@H](C)C[C@H](N(C)C)[C@H]2O)[C@](C)(O)C[C@@H](C)CN(C)[C@H](C)[C@@H](O)[C@]1(C)O | Active | Active | Active | Active | Active | Active | Active; Few Membrane Perturbation Observed | Active; Few Membrane Perturbation Observed | – | – | – | – | – | –
2 | CC[C@H](C)[C@H](NC(=O)[C@H](CCCNC(=N)N)NC(=O)[C@H](CCCNC(=N)N)NC(=O)[C@@H]1CCCN1C(=O)[C@@H]1CCCN1C(=O)[C@H](CCCNC(=N)N)NC(=O)[C@@H]1CCCN1C(=O)[C@H](CCCNC(=N)N)NC(=O)[C@@H]1CCCN1C(=O)[C@H](CC(C)C)NC(=O)[C@H](Cc1ccc(O)cc1)NC(=O)[C@H]1CCCN1C(=O)[C@@H]1CCCN1C(=O)[C@H](CCCCN)NC(=O)[C@H](CC(=O)O)NC(=O)[C@@H](N)C(C)C)C(=O)N[C@@H](Cc1ccc(O)cc1)C(=O)N[C@@H](CC(N)=O)C(=O)N[C@@H](CCCNC(=N)N)C(N)=O (H-VDKP[dP]YLPRPRPPRRIYNR-NH2) | – | – | – | – | – | – | – | – | > 64 µg/mL | > 64 µg/mL | > 64 µg/mL | > 64 µg/mL | > 1000 µg/mL | MIC (Klebsiella pneumoniae [12]): > 16 µg/mL; MIC (Pseudomonas aeruginosa [13]): > 16 µg/mL
3 | CC[C@H](C)[C@H](NC(=O)[C@@H](CCCNC(=N)N)NC(=O)[C@H](CCCNC(=N)N)NC(=O)[C@@H]1CCCN1C(=O)[C@@H]1CCCN1C(=O)[C@H](CCCNC(=N)N)NC(=O)[C@@H]1CCCN1C(=O)[C@H](CCCNC(=N)N)NC(=O)[C@@H]1CCCN1C(=O)[C@H](CC(C)C)NC(=O)[C@H](Cc1ccc(O)cc1)NC(=O)[C@@H]1CCCN1C(=O)[C@@H]1CCCN1C(=O)[C@H](CCCCN)NC(=O)[C@H](CC(=O)O)NC(=O)[C@@H](N)C(C)C)C(=O)N[C@@H](Cc1ccc(O)cc1)C(=O)N[C@@H](CC(N)=O)C(=O)N[C@H](CCCNC(=N)N)C(N)=O (H-VDKPPYLPRPRPPR[dR]IYN[dR]-NH2) | – | – | – | – | – | – | – | – | – | – | – | > 64 µg/mL | > 1000 µg/mL | MIC (Pseudomonas aeruginosa [15]): > 32 µg/mL; MIC (Pseudomonas aeruginosa [16]): > 32 µg/mL; MIC (Pseudomonas aeruginosa [17]): > 32 µg/mL; MIC (Pseudomonas aeruginosa [18]): > 64 µg/mL; MIC (Pseudomonas aeruginosa [19]): > 64 µg/mL
4 | CCC(C)C(NC(=O)C(CCCNC(=N)N)NC(=O)C(CCCNC(=N)N)NC(=O)C1CCCN1C(=O)[C@@H]1CCCN1C(=O)[C@H](CCCNC(=N)N)NC(=O)[C@@H]1CCCN1C(=O)[C@H](CCCNC(=N)N)NC(=O)[C@@H]1CCCN1C(=O)[C@H](CC(C)C)NC(=O)[C@H](Cc1ccc(O)cc1)NC(=O)[C@@H]1CCCN1C(=O)[C@@H]1CCCN1C(=O)[C@H](CCCCN)NC(=O)[C@H](CC(=O)O)NC(=O)[C@@H](N)C(C)C)C(=O)NC(Cc1ccc(O)cc1)C(=O)NC(CC(N)=O)C(=O)NC(CCCNC(=N)N)C(N)=O (stereo not given in full) (H-VDKPPYLPRPRP[ξP][ξR][ξR][ξI][ξY][ξN][ξR]-NH2) | – | – | – | – | – | – | – | – | 4 µg/mL (≈ 1.67 µM) | – | – | > 64 µg/mL | > 1000 µg/mL | MIC (Escherichia coli [20]): 8 µg/mL (≈ 3.35 µM); MIC (Escherichia coli [21]): 1 µg/mL (≈ 0.418 µM); MIC (Staphylococcus aureus [22]): > 16 µg/mL
5 | CC(C)C[C@H](NC(=O)[C@H](CC(C)C)NC(=O)[C@H](CC(C)C)NC(=O)[C@@H](CCCCN)NC(=O)[C@H](CC(C)C)NC(=O)[C@H](CC(C)C)NC(=O)[C@@H](CCCCN)NC(=O)[C@H](CC(C)C)NC(=O)[C@H](CC(C)C)NC(=O)[C@@H](CCCCN)NC(=O)[C@H](N)CCCCN)C(N)=O (H-[dK][dK]LL[dK]LL[dK]LLL-NH2) | Active | Active | Active | Active | Active | Active | Active; Few Membrane Perturbation Observed | Active; Few Membrane Perturbation Observed | 8 µg/mL (≈ 6.05 µM) | 8 µg/mL (≈ 6.05 µM) | 2.4 µg/mL (≈ 1.82 µM) | – | 1000 µg/mL | –
